{"source": "patent US10189854B2", "about": "“Substituted pyrimidine compounds” (Grünenthal GmbH, priority 2014, dated 2019)", "biological_target": "human PDE4B1 (Homo sapiens (Human), UniProt Q07343)", "sequence (Q07343 whole entry)": "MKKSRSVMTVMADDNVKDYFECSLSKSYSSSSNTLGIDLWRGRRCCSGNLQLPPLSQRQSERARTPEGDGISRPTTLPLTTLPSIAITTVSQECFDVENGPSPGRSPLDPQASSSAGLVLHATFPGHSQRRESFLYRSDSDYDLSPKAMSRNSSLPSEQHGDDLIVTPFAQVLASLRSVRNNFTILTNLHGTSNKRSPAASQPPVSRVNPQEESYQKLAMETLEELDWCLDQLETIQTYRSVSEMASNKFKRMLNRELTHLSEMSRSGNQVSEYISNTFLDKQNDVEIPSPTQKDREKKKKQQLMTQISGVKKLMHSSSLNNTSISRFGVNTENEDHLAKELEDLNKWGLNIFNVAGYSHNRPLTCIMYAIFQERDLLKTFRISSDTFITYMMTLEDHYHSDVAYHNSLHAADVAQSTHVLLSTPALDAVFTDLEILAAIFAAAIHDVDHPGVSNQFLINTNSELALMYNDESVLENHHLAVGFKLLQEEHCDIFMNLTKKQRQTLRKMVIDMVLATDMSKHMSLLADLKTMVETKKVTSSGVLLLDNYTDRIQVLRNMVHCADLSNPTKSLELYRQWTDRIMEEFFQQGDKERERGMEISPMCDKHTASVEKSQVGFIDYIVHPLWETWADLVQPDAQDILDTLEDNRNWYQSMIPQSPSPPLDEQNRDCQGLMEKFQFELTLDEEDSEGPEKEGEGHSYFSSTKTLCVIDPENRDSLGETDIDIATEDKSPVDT", "experiment": "cAMP HTRF assay to determine the activity of hPDE4B1", "type": "biochemical", "settings": "IC50 inhibition of PDE4B; human recombinant PDE4B1, cAMP HTRF assay", "protocol": "Biological Testing cAMP HTRF® Assay to Determine the Activity of hPDE4B1\nThe inhibiting effect of the compounds on the enzyme activity of human PDE4B1 was measured by the quantification of 5′-adenosine monophosphate (5′-AMP), which is formed from 3′,5′-cyclic adenosine monophosphate (cAMP). Human recombinant enzyme, expressed in Sf9 cells, and the HTRF (homogeneous time-resolved fluorescence) detection method were used in the assay.\nThe test compound or water (control) was mixed with the human recombinant PDE4B1 enzyme (4.8 U) in a buffer consisting of 44.4 mM tris-HCl, 5.28 mM MgCl2, 2.64 mM DTT and 0.044% Tween 20 (pH 7.8). After adding the cAMP enzyme substrate (final concentration 40 nM), the mixture was incubated for 30 minutes at room temperature. Then a fluorescence acceptor (Dye2 marked with cAMP), a fluorescence donor (anti-cAMP antibody marked with a europium cryptate) and the non-specific phosphodiesterase inhibitor IBMX (3-isobutyl-1-methylxanthine; final concentration 1 mM) were added. After 60 min the fluorescence transfer, which correlates with the amount of remaining cAMP, was measured with a microplate reader (Rubystar, BMG) at λex=337 nm, λem=620 nm and λem=665 nm. The enzyme activity was calculated from the quotient formed from the measured signal at 665 nm and that at 620 nm. The result was expressed as the percentage inhibition of enzyme activity of the control (without PDE4 inhibitor). The enzyme was omitted for measurement of the basal control.\n[N. Saldou et al., Comparison of recombinant human PDE4 isoforms: interaction with substrate and inhibitors, Cell. Signal. Vol. 10, No. 6, 427-440, 1998]. Several compounds according to the invention are tested in the above-described assay."}
{"molecule": "COC[C@@H]1CCCN1C(=O)c1ccc2c(c1)N(c1ncc(-c3ccccc3F)cn1)CC21CC1", "note": "[Compound 92, [1-[5-(2-Fluorophenyl)-pyrimidin-2-yl]-spiro[1,2-dihydro-indole-3,1′-cyclopropane]-6-yl]-[(2S)-2-(methoxymethyl)-pyrrolidin-1-yl]-methanone]", "values": [{"measurement": "IC50", "result": "0.1 to 1", "unit": "µM"}]}
{"molecule": "CS(=O)(=O)c1ccc(-c2cnc(N3CC4(CC4)c4ccc(C(=O)N5CCOCC5)cc43)nc2)c(F)c1", "note": "[Compound 29, [1-[5-(2-Fluoro-4-methylsulfonyl-phenyl)-pyrimidin-2-yl]-spiro[1,2-dihydro-indole-3,1′-cyclopropane]-6-yl]morpholin-4-yl-methanone]", "values": [{"measurement": "IC50", "result": "< 0.1", "unit": "µM"}]}
{"molecule": "N-[(3R)-1-[1-(5-Phenyl-pyrimidin-2-yl)-spiro[1,2-di-hydro-indole-3,1′-cyclopropane]-6-carbonyl]-pyrrolidin-3-yl]-acetamide [Compound 203]", "values": [{"measurement": "IC50", "result": "1 to 10", "unit": "µM"}]}
{"molecule": "COc1ccc(-c2cnc(N3CC4(CC4)c4ccc(C(=O)N5CCOCC5)cc43)nc2)c(F)c1", "note": "[Compound 17, [1-[5-(2-Fluoro-4-methoxy-phenyl)-pyrimidin-2-yl]-spiro[1,2-dihydro-indole-3,1′-cyclopropane]-6-yl]-morpholin-4-yl-methanone]", "values": [{"measurement": "IC50", "result": "< 0.1", "unit": "µM"}]}
{"molecule": "O=C(c1ccc2c(c1)N(c1ncc(-c3ccccc3F)cn1)CC21CC1)N1CC2CC1CN2CCO", "note": "(stereo not shown) [Compound 218, [1-[5-(2-Fluorophenyl)-pyrimidin-2-yl]-spiro[1,2-dihydro-indole-3,1′-cyclopropane]-6-yl]-[5-(2-hydroxy-ethyl)-2,5-diazabicyclo[2.2.1]heptan-2-yl]-methanone]", "values": [{"measurement": "IC50", "result": "0.1 to 1", "unit": "µM"}]}
{"molecule": "CN(C)[C@@H]1CCN(C(=O)c2ccc3c(c2)N(c2ncc(-c4ccccc4F)cn2)CC32CC2)C1", "note": "[Compound 77, [(3R)-3-Dimethylamino-pyrrolidin-1-yl]-[1-[5-(2-fluorophenyl)-pyrimidin-2-yl]-spiro[1,2-dihydro-indole-3,1′-cyclopropane]-6-yl]-methanone]", "values": [{"measurement": "IC50", "result": "0.1 to 1", "unit": "µM"}]}
{"molecule": "CN(C)C(=O)c1ccccc1-c1cnc(N2CC3(CC3)c3ccc(C(=O)N4CCOCC4)cc32)nc1", "note": "[Compound 21, N,N-Dimethyl-2-[2-[6-(morpholine-4-carbonyl)-spiro[1,2-dihydro-indole-3,1′-cyclopropane]-1-yl]-pyrimidin-5-yl]-benzamide]", "values": [{"measurement": "IC50", "result": "0.1 to 1", "unit": "µM"}]}
{"molecule": "O=C(c1ccc2c(c1)N(c1ncc(-c3ccc(CO)o3)cn1)CC21CC1)N1CCOCC1", "note": "[Compound 142, [1-[5-[5-(Hydroxymethyl)-furan-2-yl]-pyrimidin-2-yl]-spiro[1,2-di-hydro-indole-3,1′-cyclopropane]-6-yl]-morpholin-4-yl-methanone]", "values": [{"measurement": "IC50", "result": "< 0.1", "unit": "µM"}]}
{"molecule": "O=C(c1ccc2c(c1)N(c1ncc(-c3ccccc3)cn1)CC21CC1)N1CCCC1", "note": "[Compound 59, [1-(5-Phenyl-pyrimidin-2-yl)-spiro[1,2-dihydro-indole-3,1′-cyclopropane]-6-yl]-pyrrolidin-1-yl-methanone]", "values": [{"measurement": "IC50", "result": "< 0.1", "unit": "µM"}]}
{"molecule": "COc1ccc(C(N)=O)c(-c2cnc(N3CC4(CC4)c4ccc(C(=O)N5CCOCC5)cc43)nc2)c1", "note": "[Compound 113, 4-Methoxy-2-[2-[6-(morpholine-4-carbonyl)-spiro[1,2-dihydro-indole-3,1′-cyclopropane]-1-yl]-pyrimidin-5-yl]-benzamide]", "values": [{"measurement": "IC50", "result": "0.1 to 1", "unit": "µM"}]}
{"molecule": "CN(C(=O)c1ccc2c(c1)N(c1ncc(-c3ccccc3F)cn1)CC21CC1)C1CCOCC1", "note": "[Compound 102, 1-[5-(2-Fluorophenyl)-pyrimidin-2-yl]-N-methyl-N-tetrahydro-pyran-4-yl-spiro[1,2-dihydro-indole-3,1′-cyclopropane]-6-carboxylic acid amide]", "values": [{"measurement": "IC50", "result": "0.1 to 1", "unit": "µM"}]}
{"molecule": "[1-[5-(1-Cyclopropyl-phenyl)-pyrimidin-2-yl]-spiro[1,2-dihydro-indole-3,1′-cyclopropane]-6-yl]-piperazin-1-yl-methanone [Compound 70]", "values": [{"measurement": "IC50", "result": "0.1 to 1", "unit": "µM"}]}
{"molecule": "O=C(c1cc2c(cn1)C1(CC1)CN2c1ncc(-c2ccccc2F)cn1)N1CCOCC1", "note": "[Compound 168, [1-[5-(2-Fluorophenyl)-pyrimidin-2-yl]-spiro[1,2-dihydro-pyrrolo[3,2-c]pyridine-3,1′-cyclopropane]-6-yl]-morpholin-4-yl-methanone]", "values": [{"measurement": "IC50", "result": "0.1 to 1", "unit": "µM"}]}
